# Laboratory results taken from US20230405008A1, “TREATMENT OF HEMATOLOGICAL MALIGNANCIES WITH INHIBITORS OF MENIN” (Kura Oncology, Inc., priority 2020, published 2023).
# Biological target: T1, menin-MLL interaction (Homo sapiens, UniProt O00255)
# T1 sequence (O00255 1-610): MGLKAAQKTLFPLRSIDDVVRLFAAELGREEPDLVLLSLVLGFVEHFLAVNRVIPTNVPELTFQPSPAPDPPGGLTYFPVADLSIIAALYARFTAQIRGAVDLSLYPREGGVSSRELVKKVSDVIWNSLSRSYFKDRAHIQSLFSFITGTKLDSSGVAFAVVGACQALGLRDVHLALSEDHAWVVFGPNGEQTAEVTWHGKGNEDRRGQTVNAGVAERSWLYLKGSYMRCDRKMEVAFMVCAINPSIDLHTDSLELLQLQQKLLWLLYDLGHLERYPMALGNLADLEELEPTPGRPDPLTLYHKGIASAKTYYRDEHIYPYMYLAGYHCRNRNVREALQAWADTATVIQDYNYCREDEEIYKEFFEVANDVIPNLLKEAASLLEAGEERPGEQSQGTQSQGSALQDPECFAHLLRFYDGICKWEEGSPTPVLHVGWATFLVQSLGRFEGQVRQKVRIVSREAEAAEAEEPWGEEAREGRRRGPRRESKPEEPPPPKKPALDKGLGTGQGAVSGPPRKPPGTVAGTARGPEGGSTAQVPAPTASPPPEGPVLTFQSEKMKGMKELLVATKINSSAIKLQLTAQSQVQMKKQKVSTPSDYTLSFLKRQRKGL
# Assay: Fluorescence polarization (FP) competition assay
# Type: binding
# Details: menin / MLL 4-43 peptide
row,IC50 [µM],Structure (SMILES)
1,0.05 to 0.25,Cc1c(CN2CCC3(CCN(c4ncnc5sc(CC(F)(F)F)cc45)C3)C2)ccc2[nH]c(C#N)cc12 (stereo not shown) [III-30a]
2,< 0.05,CNc1nc(NC2CCN(Cc3ccc4c(cc(C#N)n4CCN4CCN(S(C)(=O)=O)[C@H](C#N)C4)c3C)CC2)c2cc(CC(F)(F)F)sc2n1 [Compound I-209]
3,0.25 to 1,Cc1c(CN2CCC(Nc3ncnc4sc(CC(F)(F)F)cc34)CC2)ccc2c1cc(C#N)n2CC(C)C1CCN(S(C)(=O)=O)CC1 (stereo not shown) [Compound I-3]
4,0.25 to 1,Cc1c(CN2CCC(Nc3ncnc4sc(CC(F)(F)F)cc34)CC2)ccc2c1cc(C#N)n2CCC1CCN(S(C)(=O)=O)C(C)C1 (stereo not shown) [Compound I-59]
5,< 0.05,Cc1c(CN2CCC(Nc3ncnc4sc(CC(F)(F)F)cc34)CC2)ccc2c1cc(C#N)n2CC12CC(NC(=O)C3CCCC(=O)N3)(C1)C2 (stereo not shown) [II-35]
6,0.05 to 0.25,CNS(=O)(=O)N1CCN(C(C)Cn2c(C#N)cc3c(C)c(CN4CCC(Nc5ncnc6sc(CC(F)(F)F)cc56)CC4)ccc32)CC1 (stereo not shown) [Compound I-128]
7,0.25 to 1,Cc1c(CN2CCC(Nc3ncnc4sc(CC(F)(F)F)cc34)CC2)ccc2c1cc(C#N)n2CCN1CC2(C1)CN(S(C)(=O)=O)C2 [Compound I-57]
8,0.25 to 1,Cc1c(CN2CCC(Nc3ncnc4sc(CC(F)(F)F)cc34)CC2)ccc2c1cc(C#N)n2CCN1CCN(C2CCN(S(C)(=O)=O)C2)CC1 (stereo not shown) [Compound I-52]
9,0.25 to 1,CS(=O)(=O)N[C@H]1CC[C@H](CN2CCC3(CCN(c4ncnc5sc(CC(F)(F)F)cc45)C3)C2)CC1 (stereo partly shown) [III-48]
10,0.25 to 1,Cc1c(CN2CCC(Nc3ncnc4sc(CC(F)(F)F)cc34)CC2)ccc2c1cc(C#N)n2CCN1CC2(CCN(S(C)(=O)=O)C2)C1 [Compound I-58]
11,0.25 to 1,Cc1c(CN2CCC(Nc3ncnc4sc(CC(F)(F)F)cc34)CC2)ccc2c1cc(C#N)n2C[C@H](C)N1CCN(C(=O)C(F)(F)F)CC1 [Compound I-118]
12,0.25 to 1,Cc1c(CN2CCC(Nc3ncnc4sc(CC(F)(F)F)cc34)CC2)ccc2c1cc(C#N)n2CC(C(C)C)N1CCN(S(C)(=O)=O)CC1 (stereo not shown) [Compound I-24]
13,0.25 to 1,Cc1c(CN2CCC(Nc3ncnc4sc(CC(F)(F)F)cc34)CC2)ccc2c1cc(C#N)n2C[C@@H](C)N1CCN(C=O)CC1 [Compound I-67]
14,< 0.05,COc1nc(NC2CCN(Cc3ccc4c(cc(C#N)n4C[C@H](C)N4CCC(S(C)(=O)=O)CC4)c3C)CC2)c2cc(CC(F)(F)F)sc2n1 [Compound I-218]
15,0.25 to 1,Cc1c(CN2CCC(Nc3nc(C4CC4)nc4sc(CC(F)(F)F)cc34)CC2)ccc2c1cc(C#N)n2C[C@H](C)N1CCN(S(C)(=O)=O)CC1 [Compound I-173]
16,0.25 to 1,CC[C@H]1CN(C(C)Cn2c(C#N)cc3c(C)c(CN4CCC(Nc5ncnc6sc(CC(F)(F)F)cc56)CC4)ccc32)CCN1S(C)(=O)=O (stereo partly shown) [Compound I-26]

row,IC50 [µM],Structure (SMILES)
1,0.25 to 1,CCS(=O)(=O)NC12CC(Cn3c(C#N)cc4c(C)c(CN5CCC(Nc6ncnc7sc(CC(F)(F)F)cc67)CC5)ccc43)(C1)C2 [II-4]
2,0.25 to 1,Cc1c(CN2CCC(Nc3ncnc4sc(CC(F)(F)F)cc34)CC2)ccc2c1cc(C#N)n2CC(C)N1CCN(S(C)(=O)=O)C(C(=O)O)C1 (stereo not shown) [Compound I-82]
3,0.05 to 0.25,Cc1c(CN2CCC(Nc3ncnc4sc(CC(F)(F)F)cc34)CC2)ccc2c1cc(C#N)n2CCN1CCC2(CC1)CC(S(C)(=O)=O)C2 [Compound I-54]
4,0.25 to 1,Cc1c(CN2CCC(Nc3ncnc4sc(CC(F)(F)F)cc34)CC2)ccc2c1cc(C#N)n2C[C@H](C)N1CCC(NP(C)(C)=O)CC1 [Compound I-157]
5,0.25 to 1,Cc1c(CN2CCC(Nc3ncnc4sc(CC(F)(F)F)cc34)CC2)ccc2c1cc(C#N)n2CCN1CC2(CCN(S(C)(=O)=O)CC2)C1 [Compound I-56]
6,0.05 to 0.25,Cc1c(CN2CCC(Nc3ncnc4sc(CC(F)(F)F)cc34)CC2)ccc2c1cc(C#N)n2CC(C)N1CCC(NS(C)(=O)=O)C1 (stereo not shown) [Compound I-162]
7,0.25 to 1,Cc1c(CN2CCC(Nc3ncnc4sc(CC(F)(F)F)cc34)CC2)ccc2c1cc(C#N)n2CCN1CC(C)N(S(C)(=O)=O)CC1C (stereo not shown) [Compound I-44]
8,0.25 to 1,Cc1c(CN2CCC(Nc3ncnc4sc(CC(F)(F)F)cc34)CC2)ccc2c1cc(C#N)n2CCN1CCC2(CCN(S(C)(=O)=O)C2)C1 (stereo not shown) [Compound I-53]
9,0.05 to 0.25,CNc1nc(NC2CCN(Cc3ccc4c(cc(C#N)n4C[C@H](C)N4CCN(S(=O)(=O)NC)CC4)c3C)CC2)c2cc(CC(F)(F)F)sc2n1 [Compound I-185]
10,0.05 to 0.25,CS(=O)(=O)Nc1ccc(CN2CCC3(CCN(c4ncnc5sc(CC(F)(F)F)cc45)C3)C2)cc1 (stereo not shown) [III-38]
11,0.25 to 1,CNS(=O)(=O)N1CCN([C@H](C)Cn2c(C#N)cc3c(C)c(CN4CCC(Nc5ncnc6sc(CC(F)(F)F)cc56)CC4)ccc32)CC1 [Compound I-66]
12,0.25 to 1,Cc1nc(NC2CCN(Cc3ccc4c(cc(C#N)n4C[C@@H](C)N4CCN(S(C)(=O)=O)CC4)c3C)CC2)c2cc(CC(F)(F)F)sc2n1 [Compound I-201]
13,0.25 to 1,Cc1c(CN2CCC(Nc3ncnc4sc(CC(F)(F)F)cc34)CC2)ccc2c1cc(C#N)n2CCN1CC2CN(S(C)(=O)=O)CC2C1 (stereo not shown) [Compound I-55]
14,0.25 to 1,Cc1c(CN2CCC(Nc3ncnc4sc(CC(F)(F)F)cc34)CC2)ccc2c1cc(C#N)n2CCN1CCN(S(C)(=O)=O)CC1C (stereo not shown) [Compound I-45]
15,0.25 to 1,C=CC(=O)Nc1ccc(C(Cn2c(C#N)cc3c(C)c(CN4CCC(Nc5ncnc6sc(CC(F)(F)F)cc56)CC4)ccc32)OC)cc1 (stereo not shown) [Compound I-1]
